Where two headings read alike, the source gives them in different places.
What was measured:
[1] = test system: 60 cancer cell lines (NCI 60 cancer cell line series); assay: NCI-DTP in vitro cancer screen, sulforhodamine B (SRB) growth inhibition, 48 hour exposure; format: cell-based, human
How it was run: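 NCI-DTP panel of 60 cancer cell lines plated day 0 at line-specific densities, exposed from day 1 to compound at 5 ten-fold-spaced doses in duplicate wells. After 48 h, cell mass stained with sulforhodamine B; −log GI50 derived from dose–response curves, averaged, and classed Low, Medium or High sensitivity.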

[2] = test system: 60 cancer cell lines (NCI 60 cancer cell line series); conditions: cited from earlier work

Carboplatin
classification of cell line as Low(1), Medium(2), High(3) sensitivity to compound ([1]; Breast BT-549 CL5013): 2
classification of cell line as Low(1), Medium(2), High(3) sensitivity to compound ([1]; Breast HS-578T CL5006): 2
classification of cell line as Low(1), Medium(2), High(3) sensitivity to compound ([1]; Breast MCF7(I) CL5001): 2
classification of cell line as Low(1), Medium(2), High(3) sensitivity to compound ([1]; Breast MCF7/ADRr CL5002): 2
classification of cell line as Low(1), Medium(2), High(3) sensitivity to compound ([1]; Breast MDA-MB-231 CL5005): 1
classification of cell line as Low(1), Medium(2), High(3) sensitivity to compound ([1]; Breast MDA-MB-435 CL5011): 1
classification of cell line as Low(1), Medium(2), High(3) sensitivity to compound ([1]; Breast MDA-N CL5012): 2
classification of cell line as Low(1), Medium(2), High(3) sensitivity to compound ([1]; Breast T-47D CL5014): 1
classification of cell line as Low(1), Medium(2), High(3) sensitivity to compound ([1]; CNS SF-268 CL12014): 3
classification of cell line as Low(1), Medium(2), High(3) sensitivity to compound ([1]; CNS SF-295 CL12015): 3
classification of cell line as Low(1), Medium(2), High(3) sensitivity to compound ([1]; CNS SF-539 CL12016): 2
classification of cell line as Low(1), Medium(2), High(3) sensitivity to compound ([1]; CNS SNB-19 CL12002): 2
classification of cell line as Low(1), Medium(2), High(3) sensitivity to compound ([1]; CNS SNB-75(I) CL12005): 2
classification of cell line as Low(1), Medium(2), High(3) sensitivity to compound ([1]; CNS U251(I) CL12009): 2
classification of cell line as Low(1), Medium(2), High(3) sensitivity to compound ([1]; Colon COLO-250 CL4010): 1
classification of cell line as Low(1), Medium(2), High(3) sensitivity to compound ([1]; Colon HCC-2998 CL4002): 1
classification of cell line as Low(1), Medium(2), High(3) sensitivity to compound ([1]; Colon HCT-15 CL4015): 1
classification of cell line as Low(1), Medium(2), High(3) sensitivity to compound ([1]; Colon HCT-116 CL4003): 2
classification of cell line as Low(1), Medium(2), High(3) sensitivity to compound ([1]; Colon HT29(I) CL4001): 1
classification of cell line as Low(1), Medium(2), High(3) sensitivity to compound ([1]; Colon KM12 CL4017): 1
classification of cell line as Low(1), Medium(2), High(3) sensitivity to compound ([1]; Colon SW-620 CL4009): 2
classification of cell line as Low(1), Medium(2), High(3) sensitivity to compound ([1]; Leukemia CCRF-CEM(I) CL7003): 2
classification of cell line as Low(1), Medium(2), High(3) sensitivity to compound ([1]; Leukemia HL-60(I) CL7008): 3
classification of cell line as Low(1), Medium(2), High(3) sensitivity to compound ([1]; Leukemia K562(I) CL7005): 2
classification of cell line as Low(1), Medium(2), High(3) sensitivity to compound ([1]; Leukemia MOLT-4 CL7006): 2
classification of cell line as Low(1), Medium(2), High(3) sensitivity to compound ([1]; Leukemia RPMI-8226(I) CL7010): 2
classification of cell line as Low(1), Medium(2), High(3) sensitivity to compound ([1]; Leukemia SR CL7019): 2
classification of cell line as Low(1), Medium(2), High(3) sensitivity to compound ([1]; Melanoma LOX IMVI CL10001): 2
classification of cell line as Low(1), Medium(2), High(3) sensitivity to compound ([1]; Melanoma M14 CL10014): 2
classification of cell line as Low(1), Medium(2), High(3) sensitivity to compound ([1]; Melanoma MALME-3M CL10002): 2
classification of cell line as Low(1), Medium(2), High(3) sensitivity to compound ([1]; Melanoma SK-MEL-2 CL10005): 2
classification of cell line as Low(1), Medium(2), High(3) sensitivity to compound ([1]; Melanoma SK-MEL-28 CL10008): 2
sensitivity classification Low(1)/Medium(2)/High(3) ([1]; NSCLC NCI-H23(I) CL1001): 3
sensitivity classification Low(1)/Medium(2)/High(3) ([1]; NSCLC NCI-H332M CL1017): 1
sensitivity classification Low(1)/Medium(2)/High(3) ([1]; NSCLC NCI-H460 CL1021): 3
sensitivity classification Low(1)/Medium(2)/High(3) ([1]; NSCLC NCI-H522 CL1003): 3
sensitivity classification Low(1)/Medium(2)/High(3) ([1]; Ovarian IGROV1 CL6010): 3
sensitivity classification Low(1)/Medium(2)/High(3) ([1]; Ovarian OVCAR-3 CL6001): 2
sensitivity classification Low(1)/Medium(2)/High(3) ([1]; Ovarian OVCAR-4 CL6002): 2
sensitivity classification Low(1)/Medium(2)/High(3) ([1]; Ovarian OVCAR-5 CL6003): 1
sensitivity classification Low(1)/Medium(2)/High(3) ([1]; Ovarian OVCAR-8 CL6005): 2
sensitivity classification Low(1)/Medium(2)/High(3) ([1]; Ovarian SK-OV-3 CL6011): 2
sensitivity classification Low(1)/Medium(2)/High(3) ([1]; Prostate DU-145 CL11003): 2
sensitivity classification Low(1)/Medium(2)/High(3) ([1]; Prostate PC-3(I) CL11001): 1
sensitivity classification Low(1)/Medium(2)/High(3) ([1]; Renal 786-0 CL9018): 2
sensitivity classification Low(1)/Medium(2)/High(3) ([1]; Renal A498 CL9013): 1
sensitivity classification Low(1)/Medium(2)/High(3) ([1]; Renal ACHN CL9023): 2
sensitivity classification Low(1)/Medium(2)/High(3) ([1]; Renal CAKI-1 CL9015): 2
sensitivity classification Low(1)/Medium(2)/High(3) ([1]; Renal RXF-393 CL9016): 2
sensitivity classification Low(1)/Medium(2)/High(3) ([1]; Renal SN12C CL9008): 2
sensitivity classification Low(1)/Medium(2)/High(3) ([1]; Renal TK10 CL9024): 1
sensitivity classification Low(1)/Medium(2)/High(3) ([1]; Renal UO-31 CL9004): 2
−Log (GI50) ([2]; Breast BT-549 CL5013): 3.7
−Log (GI50) ([2]; Breast HS-578T CL5006): 3.8
−Log (GI50) ([2]; Breast MCF7(I) CL5001): 3.9
−Log (GI50) ([2]; Breast MCF7/ADRr CL5002): 3.8
−Log (GI50) ([2]; Breast MDA-MB-231 CL5005): 3.6
−Log (GI50) ([2]; Breast MDA-MB-435 CL5011): 3.7
−Log (GI50) ([2]; Breast MDA-N CL5012): 3.8
−Log (GI50) ([2]; Breast T-47D CL5014): 3.6
−Log (GI50) ([2]; CNS SF-268 CL12014): 4.3
−Log (GI50) ([2]; CNS SF-295 CL12015): 4.2
−Log (GI50) ([2]; CNS SF-539 CL12016): 4.1
−Log (GI50) ([2]; CNS SNB-19 CL12002): 3.8
−Log (GI50) ([2]; CNS SNB-75(I) CL12005): 4.0
−Log (GI50) ([2]; CNS U251(I) CL12009): 4.2
−Log (GI50) ([2]; Colon COLO-250 CL4010): 3.6
−Log (GI50) ([2]; Colon HCC-2998 CL4002): 3.7
−Log (GI50) ([2]; Colon HCT-15 CL4015): 3.6
−Log (GI50) ([2]; Colon HCT-116 CL4003): 3.7
−Log (GI50) ([2]; Colon HT29(I) CL4001): 3.7
−Log (GI50) ([2]; Colon KM12 CL4017): 3.7
−Log (GI50) ([2]; Colon SW-620 CL4009): 3.8
−Log (GI50) ([2]; Leukemia CCRF-CEM(I) CL7003): 4.2
−Log (GI50) ([2]; Leukemia HL-60(I) CL7008): 4.5
−Log (GI50) ([2]; Leukemia K562(I) CL7005): 3.8
−Log (GI50) ([2]; Leukemia MOLT-4 CL7006): 4.1
−Log (GI50) ([2]; Leukemia RPMI-8226(I) CL7010): 3.8
−Log (GI50) ([2]; Leukemia SR CL7019): 4.1
−Log (GI50) ([2]; Melanoma LOX IMVI CL10001): 4.2
−Log (GI50) ([2]; Melanoma M14 CL10014): 4.0
−Log (GI50) ([2]; Melanoma MALME-3M CL10002): 4.1
−Log (GI50) ([2]; Melanoma SK-MEL-2 CL10005): 3.8
−Log (GI50) ([2]; Melanoma SK-MEL-5 CL10007): 4.0
−Log (GI50) ([2]; Melanoma SK-MEL-28 CL10008): 3.8
−Log (GI50) ([2]; Melanoma UACC-62 CL10020): 4.4
−Log (GI50) ([2]; Melanoma UACC-257 CL10021): 3.9
−Log (GI50) ([2]; NSCLC A549/ATCC CL1004): 4.0
−Log (GI50) ([2]; NSCLC EKVX CL1008): 3.7
−Log (GI50) ([2]; NSCLC HOP-62 CL1026): 3.9
−Log (GI50) ([2]; NSCLC HOP-92 CL1029): 4.0
−Log (GI50) ([2]; NSCLC NCI-H23(I) CL1001): 4.3
−Log (GI50) ([2]; NSCLC NCI-H226 CL1013): 3.9
−Log (GI50) ([2]; NSCLC NCI-H332M CL1017): 3.7
−Log (GI50) ([2]; NSCLC NCI-H460 CL1021): 4.5
−Log (GI50) ([2]; NSCLC NCI-H522 CL1003): 4.3
−Log (GI50) ([2]; Ovarian IGROV1 CL6010): 4.3
−Log (GI50) ([2]; Ovarian OVCAR-3 CL6001): 4.2
−Log (GI50) ([2]; Ovarian OVCAR-4 CL6002): 4.1
−Log (GI50) ([2]; Ovarian OVCAR-5 CL6003): 3.6
−Log (GI50) ([2]; Ovarian OVCAR-8 CL6005): 3.7
−Log (GI50) ([2]; Ovarian SK-OV-3 CL6011): 3.7
−Log (GI50) ([2]; Prostate DU-145 CL11003): 3.9
−Log (GI50) ([2]; Prostate PC-3(I) CL11001): 3.6
−Log (GI50) ([2]; Renal 786-0 CL9018): 4.0
−Log (GI50) ([2]; Renal A498 CL9013): 3.7
−Log (GI50) ([2]; Renal ACHN CL9023): 4.1
−Log (GI50) ([2]; Renal CAKI-1 CL9015): 4.1
−Log (GI50) ([2]; Renal RXF-393 CL9016): 4.2
−Log (GI50) ([2]; Renal SN12C CL9008): 3.8
−Log (GI50) ([2]; Renal TK10 CL9024): 3.7
−Log (GI50) ([2]; Renal UO-31 CL9004): 3.8
